Assay results as given in patent US20190209712A1, “HUMANIZED MURINE MODEL OF CHRONIC HEPATITIS B CONSTRUCTED USING STEM CELLS AND METHOD OF USING SAME” (Zhejiang University, priority 2017, published 2019).

Test system: HBV
Assay: Efficacy of and drug resistance to antiviral drugs in humanized rat model of chronic hepatitis B (HBV viral load)
Format: in vivo
Conditions: humanized rats with chronic hepatitis B; therapeutic dose; 1, 2, 4, 8, 12 and 24 weeks after treatment; FIG. 2
Protocol: The Study of Efficacy of and Drug Resistance to the Antiviral Drugs Using a Humanized Rat Model of Chronic Hepatitis B • 1. 200 humanized rats with chronic hepatitis B were randomly divided into four groups. There were no significant differences in age, gender, weight and baseline of HBV viral load among the groups. • 2. Therapeutic dose of commonly used antiviral drugs lamivudine, telbivudine, entecavir and tenofovir were administered to each of the four groups, respectively. • 3. At 1 week, 2 weeks, 4 weeks, 8 weeks, 12 weeks and 24 weeks after the treatment, the viral load of HBV in each group of rats was detected, respectively. • 4. Curves were plotted based on the viral load in each group at each time point. The difference between the groups was compared to evaluate the efficacy of and drug resistance to existing commonly used antiviral drugs.

SMILES | drop of the viral titer curves (viral load of HBV)
C=C1[C@H](CO)[C@@H](O)C[C@@H]1n1cnc2c(=O)[nH]c(N)nc21 [entecavir] | superior to those of the telbivudine group and the lamivudine group
C[C@H](Cn1cnc2c(N)ncnc21)OCP(=O)(O)O [tenofovir] | superior to those of the telbivudine group and the lamivudine group
